IC50 data for 34 molecules are collected here from US9776979B2, “EBI2 modulators” (Sanford-Burnham Medical Research Institute, priority 2013, dated 2017).

The target in the test is EBI2 (Homo sapiens, UniProt P32249). In words: Cell-based luminescent assay (EBI2 modulation). To be noted: cell-based luminescence; 7a,25-OHC final assay concentration 80 nM; 60 minutes incubation; read-out: IC50. An outline of the steps: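 Cells plated overnight at 37° C, then exposed to compound at 4-5 uM final with 80 nM 7a,25-OHC agonist for 60 min at 37° C. Luminescence read after 60 min detection at 25° C in the dark; values normalized to neutral and stimulator controls and plate-pattern corrected.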
EBI2, sequence (P32249 whole entry): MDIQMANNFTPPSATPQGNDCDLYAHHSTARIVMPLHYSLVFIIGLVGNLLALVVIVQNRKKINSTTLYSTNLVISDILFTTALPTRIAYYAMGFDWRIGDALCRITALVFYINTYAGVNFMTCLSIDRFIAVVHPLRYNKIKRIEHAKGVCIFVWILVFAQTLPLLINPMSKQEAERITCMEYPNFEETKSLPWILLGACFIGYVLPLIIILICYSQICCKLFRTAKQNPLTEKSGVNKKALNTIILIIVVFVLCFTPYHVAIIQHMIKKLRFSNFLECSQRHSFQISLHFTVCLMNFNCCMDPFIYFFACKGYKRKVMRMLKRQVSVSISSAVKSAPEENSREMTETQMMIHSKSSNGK
As for `O=C(/C=C/c1ccc(F)cc1)N1CCN(S(=O)(=O)c2ccc(Br)cc2)CC1` [Compound E2, (2E)-1-{4-[(4-bromophenyl)sulfonyl]piperazinyl}-3-(4-fluorophenyl) prop-2-en-1-one], the IC50 was less than 0.1 µM.

Turning to `O=C(/C=C/c1ccc(F)cc1)N1CCN(S(=O)(=O)CCc2ccccc2)CC1` [Compound E3, (2E)-3-(4-fluorophenyl)-1-{4-[(2-phenylethyl)sulfonyl]piperazinyl}prop-2-en-1-one], the IC50 was less than 0.1 µM.

`COc1ccc(/C=C/C(=O)N2CCN(S(=O)(=O)c3ccccc3)CC2)cc1` [Compound E4, (2E)-3-(4-methoxyphenyl)-1-[4-(phenylsulfonyl)piperazinyl]prop-2-en-1-one]: the IC50 was less than 0.1 µM.

Consider `CC(=O)c1ccc(S(=O)(=O)N2CCN(C(=O)/C=C/c3ccc(Br)cc3F)CC2)cc1` [Compound E5, 4-({4-[(2E)-3-(4-bromo-2-fluorophenyl)prop-2-enoyl]piperazinyl}sulfonyl)-1-acetylbenzene], for which the IC50 was less than 0.1 µM.

For `O=C(/C=C/c1ccc(Br)cc1)N1CCC(CNCc2ccc(C(F)(F)F)cc2)CC1` [Compound F2], the IC50 is less than 0.1 µM.

Take `O=C(NCC1CCN(C(=O)/C=C/c2ccc(Br)cc2)CC1)c1ccc(C(F)(F)F)cc1` [Compound F3, (E)-N-((1-(3-(4-bromophenyl)acryloyl)piperidin-4-yl)methyl)-4-(trifluoromethyl)benzamide]: the IC50 was less than 0.1 µM.

Consider “(2E)-1-(4-{[4-(tert-butyl)phenyl]sulfonyl}piperazinyl)-3-(4-bromophenyl)prop-2-en-1-one [Compound C150]”, for which the IC50 was less than 0.1 µM.

Consider “(2E)-1-[4-(2-(1,3-dihydroisobenzofuran-5-yl)ethyl)piperazinyl]-3-phenylprop-2-en-1-one [Compound C362]”, for which the IC50 was less than 0.1 µM.

As to “(2E)-1-[4-(diphenylmethyl)piperazinyl]-3-(4-bromo-2-fluorophenyl)prop-2-en-1-one [Compound C24]”, the IC50 is less than 0.1 µM.

For “(2E)-1-[4-(diphenylmethyl)piperazinyl]-3-(4-bromophenyl)prop-2-en-1-one [Compound C27]”, the IC50 was less than 0.1 µM.

“(2E)-1-[4-({[(3,5-difluorophenyl)methyl]amino}methyl)piperidyl]-3-(4-bromophenyl)prop-2-en-1-one [Compound C54]”: the IC50 is less than 0.1 µM.

Turning to “(2E)-1-{4-[2-(2-fluorophenyl)ethyl]piperazinyl}-3-phenylprop-2-en-1-one [Compound C361]”, the IC50 was less than 0.1 µM.

Regarding “(2E)-1-{4-[(2,4-difluorophenyl)carbonyl]piperazinyl}-3-(4-bromophenyl)prop-2-en-1-one [Compound C46]”, the IC50 was less than 0.1 µM.

With “(2E)-1-{4-[(2,5-difluorophenyl)methyl]piperazinyl}-3-phenylprop-2-en-1-one [Compound C350]”, the IC50 was less than 0.1 µM.

For “(2E)-1-{4-[(2,5-dimethoxyphenyl)sulfonyl]piperazinyl}-3-(4-fluorophenyl)prop-2-en-1-one [Compound C318]”, the half-inhibitory concentration (IC50) was less than 0.1 µM.

With “(2E)-1-{4-[(2-methylphenyl)methyl]piperazinyl}-3-phenylprop-2-en-1-one [Compound C394]”, the IC50 lay in the range of 0.1 to 0.5 µM.

Regarding “(2E)-1-{4-[(3,5-dimethylphenyl)methyl]piperazinyl}-3-phenylprop-2-en-1-one [Compound C340]”, the IC50 was less than 0.1 µM.

As for “(2E)-1-{4-[(3-methoxyphenyl)methyl]piperazinyl}-3-phenylprop-2-en-1-one [Compound C379]”, the IC50 was less than 0.1 µM.

Turning to “(2E)-1-{4-[(3-nitrophenyl)methyl]piperazinyl}-3-phenylprop-2-en-1-one [Compound C387]”, the IC50 is less than 0.1 µM.

As for “(2E)-1-{4-[(4-bromophenyl)sulfonyl]piperazinyl}-3-(4-chloro-2-fluorophenyl)prop-2-en-1-one [Compound C388]”, the IC50 is less than 0.1 µM.

In the case of “(2E)-3-(4-bromophenyl)-1-(4-heptanoylpiperazinyl)prop-2-en-1-one [Compound C80]”, the IC50 was less than 0.1 µM.

On to “(2E)-3-(4-bromophenyl)-1-[4-({[(4-chlorophenyl)methyl]amino}methyl)piperidyl]prop-2-en-1-one [Compound C74]”, for which the concentration for half-maximal inhibition (IC50) is less than 0.1 µM.

Regarding “(2E)-3-(4-bromophenyl)-1-[4-({[(4-fluorophenyl)methyl]amino}methyl)piperidyl]prop-2-en-1-one [Compound C47]”, the IC50 is less than 0.1 µM.

With “(2E)-3-(4-bromophenyl)-1-{4-[({[3-fluoro-4-(trifluoromethyl)phenyl]methyl}amino)methyl]piperidyl} prop-2-en-1-one [Compound C121]”, the IC50 was less than 0.1 µM.

Take “(2E)-3-(4-ethoxyphenyl)-1-[4-(phenylsulfonyl)piperazinyl]prop-2-en-1-one [Compound C313]”: the IC50 is less than 0.1 µM.

As to “(2E)-3-(4-fluorophenyl)-1-[4-(naphthylsulfonyl)piperazinyl]prop-2-en-1-one [Compound C345]”, the IC50 was less than 0.1 µM.

With “(2E)-3-phenyl-1-[4-(4-pyridylmethyl)piperazinyl]prop-2-en-1-one [Compound C466]”, the IC50 fell in the range of 0.1 to 0.5 µM.

For “(2E)-3-phenyl-1-[4-benzylpiperazinyl]prop-2-en-1-one [Compound C337]”, the IC50 was less than 0.1 µM.

Take “(2E)-3-phenyl-1-piperazinylprop-2-en-1-one [Compound C444]”: the IC50 was 0.1 to 0.5 µM.

Consider “N-(4-bromophenyl){4-[(5-chloroindol-2-yl)carbonyl]piperazinyl}carboxamide [Compound C445]”, for which the IC50 fell in the range of 0.1 to 0.5 µM.

Turning to “benzo[d]furan-2-yl 4-(phenylethyl)piperazinyl ketone [Compound C405]”, the IC50 was in the range of 0.1 to 0.5 µM.

Turning to “piperazinyl 5-nitroindol-2-yl ketone [Compound C134]”, the IC50 was less than 0.1 µM.

For “tert-butyl 4-(indol-2-ylcarbonyl)piperazinecarboxylate [Compound C414]”, the IC50 is 0.1 to 0.5 µM.

For the molecule “{1-[(5-chloroindol-2-yl)carbonyl](4-piperidyl)}(4-chlorophenyl) [Compound C462]”, the IC50 lay in the range of 0.1 to 0.5 µM.

What is called IC50 is the point on the concentration scale where inhibition reaches its midpoint.
